Where a chain is given by its changes, count along the chain named.
Columns and labels:
Format in all cases: cell-based
[1] = target: T1, CquiOR114b-1 (co-expressed with CquiOrco) (Culex quinquefasciatus, UniProt A0A3G1CJK1); assay: two-electrode voltage clamp, Xenopus oocytes, concentration-response; conditions: agonist current, 1, 10 and 100 µM, holding -80 to -70 mV
T1 construct: full length, 405 residues (longer C-terminus); pGEMHE, Xenopus oocytes co-expressing CquiOrco; with Odorant receptor coreceptor
T1 sequence (A0A3G1CJK1 1-405): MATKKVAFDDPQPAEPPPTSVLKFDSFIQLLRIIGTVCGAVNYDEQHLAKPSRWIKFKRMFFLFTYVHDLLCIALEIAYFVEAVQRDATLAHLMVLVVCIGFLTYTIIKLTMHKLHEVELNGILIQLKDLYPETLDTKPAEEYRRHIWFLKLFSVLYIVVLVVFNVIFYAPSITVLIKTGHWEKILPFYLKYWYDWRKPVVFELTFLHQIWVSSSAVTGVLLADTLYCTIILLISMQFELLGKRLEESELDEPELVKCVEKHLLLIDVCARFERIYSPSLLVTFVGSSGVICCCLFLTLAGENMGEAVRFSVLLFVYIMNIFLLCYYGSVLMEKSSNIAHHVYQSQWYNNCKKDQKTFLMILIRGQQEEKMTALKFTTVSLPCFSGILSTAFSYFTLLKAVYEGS

[2] = target: T2, CquiOR118b (co-expressed with CquiOrco) (Culex quinquefasciatus, UniProt A0A3G1CJJ7); assay: as above; conditions: agonist current, 0.01, 0.1 and 1 µM, holding -80 to -70 mV
T2 construct: full-length short version, 391 residues, shorter N-terminus than the VectorBase prediction CPIJ013954; pGEMHE, Xenopus oocytes co-expressing CquiOrco; with Odorant receptor coreceptor
T2 sequence (A0A3G1CJJ7 1-391): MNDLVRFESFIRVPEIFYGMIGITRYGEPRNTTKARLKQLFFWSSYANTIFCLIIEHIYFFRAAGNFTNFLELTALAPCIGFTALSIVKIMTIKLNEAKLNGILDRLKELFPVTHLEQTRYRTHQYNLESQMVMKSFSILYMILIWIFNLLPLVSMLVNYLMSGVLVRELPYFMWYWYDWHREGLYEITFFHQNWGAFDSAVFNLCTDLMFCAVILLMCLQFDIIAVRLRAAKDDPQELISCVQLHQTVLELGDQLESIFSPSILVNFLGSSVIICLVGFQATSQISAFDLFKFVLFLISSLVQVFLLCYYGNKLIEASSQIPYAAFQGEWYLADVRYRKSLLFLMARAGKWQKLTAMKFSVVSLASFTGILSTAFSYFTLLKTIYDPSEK

[3] = target: T1, CquiOR114b-1 (co-expressed with CquiOrco); assay: two-electrode voltage clamp, Xenopus oocytes, current traces; conditions: agonist current, 1 to 10 µM, enantiomer not stated
[4] = target: T3, CquiOR114b-2 (co-expressed with CquiOrco) (Culex quinquefasciatus, UniProt A0A3G1CJJ8); assay: as above; conditions: agonist current, 1 to 10 µM, enantiomer not stated
T3 construct: full length, 405 residues (longer C-terminus); pGEMHE, Xenopus oocytes co-expressing CquiOrco; with Odorant receptor coreceptor
T3 sequence (A0A3G1CJJ8 1-405): T1 sequence (A0A3G1CJK1 1-405) with L63W, G122E, D129N
Source text: two-electrode voltage clamp, Xenopus oocytes, current traces on CquiOR114b-2 (co-expressed with CquiOrco) | CquiOR114b-2 and CquiOrco (lower trace). Compounds were delivered in the following order | CquiOR114b-2 and CquiOrco (lower trace). Compounds were delivered in the following order: 1-octyn-3-ol

Compound | two-electrode voltage clamp, Xenopus oocytes, concentration-response [1] | two-electrode voltage clamp, Xenopus oocytes, concentration-response [2] | two-electrode voltage clamp, Xenopus oocytes, current traces [3] | two-electrode voltage clamp, Xenopus oocytes, current traces [4]
C=C[C@@H](O)CCCCC [(S)-1-octen-3-ol] | significantly lower than those obtained with its antipode, ( S)-1-octen-3-ol | currents generated by its antipode, ( S)-1-octen-3-ol, were relatively very small | – | –
C#C[C@@H](O)CCCCC [(S)-1-octyn-3-ol] | showed preference for ( S)-isomers of 1-octen-3-ol and 1-octyn-3-ol | CquiOR118b showed dramatic enantioselectivity towards ( R)-as compared to ( S)-1-octyn-3-ol | – | –
CCCCCC(O)CC (centres unmarked) [3-octanol] | – | – | oocytes co-expressing CquiOR114b-1 and CquiOrco (top trace) | CquiOR114b-2 and CquiOrco (lower trace). Compounds were delivered in the following order
C=CC(O)CCCCC (centres unmarked) [1-octen-3-ol] | – | – | oocytes co-expressing CquiOR114b-1 and CquiOrco (top trace) | CquiOR114b-2 and CquiOrco (lower trace). Compounds were delivered in the following order
C=C[C@H](O)CCCCC [(R)-1-octen-3-ol] | currents elicited by ( R)-1-octen-3-ol were significantly lower than those obtained with its antipode | robust responses were elicited by ( R)-1-octen-3-ol in a dose-dependent manner | – | –
C#CC(O)CCCCC (centres unmarked) [1-octyn-3-ol] | – | – | oocytes co-expressing CquiOR114b-1 and CquiOrco (top trace) | CquiOR114b-2 and CquiOrco (lower trace). Compounds were delivered in the following order: 1-octyn-3-ol
C#C[C@H](O)CCCCC [(R)-1-octyn-3-ol] | oocytes were challenged with enantiomers of 1-octen-3-ol, 1-octyn-3-ol, and 3-octanol | CquiOR118b showed dramatic enantioselectivity towards ( R)-as compared to ( S)-1-octyn-3-ol | – | –
CCCCC[C@@H](O)CC [(S)-3-octanol] | robust responses to 3-octanol, with responses to the ( R)- and ( S)-stereoisomers being almost indistinguishable | – | – | –
CCCCC[C@H](O)CC [(R)-3-octanol] | robust responses to 3-octanol, with responses to the ( R)- and ( S)-stereoisomers being almost indistinguishable | the responses to ( R)-3-octanol were relatively high | – | –

From PMC4623779, “1-Octen-3-ol – the attractant that repels” (F1000Research, 2015)
